Experimental data taken from the NIST ThermoML archive (doi:10.1021/je050334+).
Numbers after ± are expanded uncertainties.

Settings: Liquid, Transpiration method

## COC(=O)CCCCC(=O)OC [dimethyl 1,6-hexanedioate]
293.2 K
  vapor or sublimation pressure: 0.00253 ± 0.00014 kPa
296.2 K
  vapor or sublimation pressure: 0.00336 ± 0.00018 kPa
299.2 K
  vapor or sublimation pressure: 0.00443 ± 0.00024 kPa
302.2 K
  vapor or sublimation pressure: 0.00586 ± 0.00031 kPa
305.2 K
  vapor or sublimation pressure: 0.0074 ± 0.00039 kPa
308.2 K
  vapor or sublimation pressure: 0.00991 ± 0.00052 kPa
310.2 K
  vapor or sublimation pressure: 0.01133 ± 0.0006 kPa
313.3 K
  vapor or sublimation pressure: 0.01454 ± 0.00076 kPa
316.2 K
  vapor or sublimation pressure: 0.01794 ± 0.00095 kPa
319.3 K
  vapor or sublimation pressure: 0.02356 ± 0.0012 kPa
322.2 K
  vapor or sublimation pressure: 0.02831 ± 0.0015 kPa
325.3 K
  vapor or sublimation pressure: 0.03778 ± 0.002 kPa
328.2 K
  vapor or sublimation pressure: 0.04592 ± 0.0024 kPa
331.2 K
  vapor or sublimation pressure: 0.05704 ± 0.003 kPa
334.2 K
  vapor or sublimation pressure: 0.06981 ± 0.0036 kPa

## CCOC(=O)c1ccccc1 [ethyl benzoate]
283.9 K
  vapor or sublimation pressure: 0.0071 ± 0.0004 kPa
286.9 K
  vapor or sublimation pressure: 0.0093 ± 0.0005 kPa
289 K
  vapor or sublimation pressure: 0.0113 ± 0.0006 kPa
292 K
  vapor or sublimation pressure: 0.0143 ± 0.0008 kPa
294.1 K
  vapor or sublimation pressure: 0.0174 ± 0.0009 kPa
295 K
  vapor or sublimation pressure: 0.0183 ± 0.001 kPa
298.1 K
  vapor or sublimation pressure: 0.0239 ± 0.0012 kPa
299.1 K
  vapor or sublimation pressure: 0.0254 ± 0.0014 kPa
301.2 K
  vapor or sublimation pressure: 0.0312 ± 0.0016 kPa
304.2 K
  vapor or sublimation pressure: 0.039 ± 0.002 kPa
307.2 K
  vapor or sublimation pressure: 0.0472 ± 0.0025 kPa
310.1 K
  vapor or sublimation pressure: 0.0597 ± 0.0031 kPa
312.3 K
  vapor or sublimation pressure: 0.0716 ± 0.0037 kPa
315.3 K
  vapor or sublimation pressure: 0.0862 ± 0.0045 kPa
317.3 K
  vapor or sublimation pressure: 0.1055 ± 0.0056 kPa
320.3 K
  vapor or sublimation pressure: 0.1297 ± 0.0068 kPa
323.4 K
  vapor or sublimation pressure: 0.1656 ± 0.0086 kPa
326.4 K
  vapor or sublimation pressure: 0.2016 ± 0.01 kPa
329.5 K
  vapor or sublimation pressure: 0.2452 ± 0.013 kPa
332.5 K
  vapor or sublimation pressure: 0.2944 ± 0.015 kPa
